Laboratory results published in patent publication US9266939B2, “Compositions comprising natriuretic peptides and methods of use thereof” (Alexion Pharmaceuticals, Inc., priority 2010, dated 2016).
Marks after values point to notes of the source that are not given here.

Columns and labels:
[1] = In vivo pharmacokinetic study of NC2st administered IV or SC in C57BL/6 mice; settings: male mice; for AUClast: 20 mg/kg single dose, serum
Procedure: NC2st was formulated at a concentration of 5.79 mg/mL in 25 mM sodium phosphate pH 7.4, 150 mM NaCl. The animals received NC2st as a single IV or SC dose (20 mg/kg) as described in Table 3 below. Injections were scheduled between 7:00 and 10:15 AM. Each mouse was injected with test article subcutaneously into the scapular region or immobilized in a rodent restrainer and injected with the test article as an intravenous bolus via the caudal vein. […] The animals received only one dose before scheduled blood collection and sacrifice. Individual body weights were assessed before scheduled test article injection and the volume of test article administered was based on body weight determination. Blood samples (0.1 to 0.12 mL) were collected via a jugular vein under isoflurane anesthesia at different time points. At the last time point, blood samples were collected by cardiac puncture under isoflurane anesthesia. Blood samples were collected into Microvette 200Z/gel tube (Sarstedt, serum/gel clotting activator, #20.1291), incubated at room temperature for 30 to 60 minutes, and centrifuged at 10,000×g for five minutes at 2-8° C. Serum was then transferred into a fresh 0.5 mL tube (Sarstedt, #72.699), snap-frozen in liquid nitrogen, and stored at -80° C. until analysis. […] Formulated NC2st protein spiked in serum served as a standard. Pharmacokinetic profiles were derived from the concentration measured by EIA. A non-compartmental analysis (NCA) was used to calculate the pharmacokinetic parameters of testing compound. […] NCA Model 200 was selected for extravascular input or Model 201 for IV-Bolus input using sparse sampling analysis module for both models. The following non-compartmental PK parameters were calculated: • Area under the curve from time zero to the last detectable concentration (AUClast), calculated using the linear trapezoidal (linear interpolation); • Area under the curve from time zero to infinity (AUC∞) calculated [NT]λz (where λz=slope of the terminal phase of the serum concentration vs time curve); • Maximum observed serum concentration (Cmax), time of maximum serum concentration (Tmax); • Terminal elimination half-life (T1/2, calculated as 0.693/λz); • Systemic clearance (CL) was calculated as Dose/AUC∞ and • Total volume of distribution (Vss) was calculated using CL×MRT, where MRT is the mean residence time. Absolute bioavailability (F %) between routes was calculated using the following formula: [AUC∞ (sc)/Dose(sc)]/[AUC∞ (iv)/Dose(iv)]×100. Nominal times were used in the calculations and times are set relative to start of dosing. Nominal doses were used for the calculation of CL.

Fgfr3^369/+ mice = experiment: Efficacy of SC NC2st on rescue of the ACH bone phenotype in Fgfr3^369/+ mice; format: in vivo; settings: 61 days
Description: The study was designed to evaluate the effect of daily subcutaneous (SC) administration of NC2 Streptag (NC2st) on rescue of the achondroplasia skeletal disorders in the mouse model of the disease, the Fgfr3^369/+ mice.
Fgfr3^369/+ mice were created by an amino acid substitution (Gly to Cys) at position 369 in the mouse Fibroblast Growth Factor Receptor 3 (Fgfr3) gene (Chen et al., J. Clin. Invest. 104(11): 1517-1525, 1999). Substitution 369 (Gly369Cys) in mouse Fgfr3 gene causes dwarfism with features mimicking human achondroplasia. […] Thus, the Fgfr3^369+ mouse is an appropriate model for non-clinical studies evaluating the treatment of achondroplasia.
The study was an open label parallel and randomized control study. Treatments were open label, and Table 5 provides details of the treatment groups.
Injections were scheduled twice daily at approximately 8:00 to 10:00 AM and 8:00 to 10:00 PM. The dose volume was set at 4 ml/kg. The actual volume administered to each mouse was calculated and adjusted based on the daily body weight of each animal measured prior to the AM injection. Vehicle or NC2st was injected SC twice daily into the scapular or lumbar region of Fgfr3^369/+ animals from the third day after birth to 63 days of age.
Ex vivo radiographs of whole body, rib cage and skull were taken using a Faxitron model MX-20 DC4 under constant conditions (26 kV, 10 sec at 1×, 3× and 3× magnification, respectively). Bone measurements were performed on the radiographic images of all animals in a blinded fashion using the software Image Processing and Analysis in Java (ImageJ).
Bone samples were cleaned of excess tissue (not scraped) and fixed. Length of femur and tibia was measured using a caliper.

[2] = Active NC2st concentration in serum of treated Fgfr3^369/+ mice (cGMP assay); format: in vivo; settings: 13-18 hours after the last dose
Procedure: At necropsy (Day 64), blood samples were collected by cardiac puncture under isoflurane anesthesia 13-18 hours after the last dose. Blood samples were collected into Microvette 500Z/gel tube (Sarstedt, serum/gel clotting activator, #20.1344), incubated at room temperature for 30 to 60 minutes and centrifuged at 10,000×g for five minutes at 2-8° C. 100 μl of serum was then transferred into 0.5 mL tubes (Sarstedt, #72.699), and the remainder was transferred in a second tube. The two tubes were frozen in liquid nitrogen and stored at −80° C. until analysis.

[3] = Tx-100: 100 mg/kg SC twice daily

Substance: NC2st: Fc-CNP fusion: Strep-tag II, TEV site, human IgG-1 Fc, 16-amino acid glycine-rich linker, CNP22; SEQ ID NO: 502
- AUC∞ ([1]; IV, 20 mg/kg): 28,563 hr · nmol/L
- CL ([1]; IV, 20 mg/kg): 0.0112 L/h/kg
- Cmax ([1]; IV, 20 mg/kg): 2100 nM
- Half-life ([1]; IV, 20 mg/kg): 10.6 h
- Tmax ([1]; IV, 20 mg/kg): 1.00 h
- Vss ([1]; IV, 20 mg/kg): 0.173 L/kg
- AUClast ([1]; IV): 27,587 hr · nmol/L
- increase of SC half-life over intravenous CNP22 ([1]; SC): approximately 340 fold
- Bioavailability ([1]; SC vs IV, 20 mg/kg): 68.5%
- AUC∞ ([1]; SC, 20 mg/kg): 19,592 hr · nmol/L
- CL_F ([1]; SC, 20 mg/kg): 0.0163 L/h/kg
- Cmax ([1]; SC, 20 mg/kg): 798 nM
- Half-life ([1]; SC, 20 mg/kg): 14.3 h
- Tmax ([1]; SC, 20 mg/kg): 6.00 h
- Vss_F ([1]; SC, 20 mg/kg): 0.353 L/kg
- AUClast ([1]; SC): 17,735 hr · nmol/L
- Cervical vertebrae length, % change vs Vehicle (Fgfr3^369/+ mice; Tx-10: 10 mg/kg SC twice daily): +17.6%*
- Femur length, % change vs Vehicle (Fgfr3^369/+ mice; Tx-10: 10 mg/kg SC twice daily): +3.85%*
- Lumbar vertebrae length, % change vs Vehicle (Fgfr3^369/+ mice; Tx-10: 10 mg/kg SC twice daily): +8.64%*
- Naso-anal length, % change vs Vehicle (Fgfr3^369/+ mice; Tx-10: 10 mg/kg SC twice daily): +8.99%*
- Neck-anal length, % change vs Vehicle (Fgfr3^369/+ mice; Tx-10: 10 mg/kg SC twice daily): +12.4%*
- Occipital-front distance, % change vs Vehicle (Fgfr3^369/+ mice; Tx-10: 10 mg/kg SC twice daily): +0.89%
- Skull Circularity index, % change vs Vehicle (Fgfr3^369/+ mice; Tx-10: 10 mg/kg SC twice daily): −1.52%
- Sternum length, % change vs Vehicle (Fgfr3^369/+ mice; Tx-10: 10 mg/kg SC twice daily): +6.67%*
- Tail length, % change vs Vehicle (Fgfr3^369/+ mice; Tx-10: 10 mg/kg SC twice daily): +7.38%*
- Thoracic vertebrae length, % change vs Vehicle (Fgfr3^369/+ mice; Tx-10: 10 mg/kg SC twice daily): +11.6%*
- Tibia length, % change vs Vehicle (Fgfr3^369/+ mice; Tx-10: 10 mg/kg SC twice daily): +6.50%*
- Total CTL vertebrae length, % change vs Vehicle (Fgfr3^369/+ mice; Tx-10: 10 mg/kg SC twice daily): +11.6%*
- Cervical vertebrae length, % change vs Vehicle (Fgfr3^369/+ mice; [3]): +24.3%*
- Femur length, % change vs Vehicle (Fgfr3^369/+ mice; [3]): +3.85%*
- Lumbar vertebrae length, % change vs Vehicle (Fgfr3^369/+ mice; [3]): +13.6%*
- Naso-anal length, % change vs Vehicle (Fgfr3^369/+ mice; [3]): +14.3%*
- Neck-anal length, % change vs Vehicle (Fgfr3^369/+ mice; [3]): +21.1%*
- Occipital-front distance, % change vs Vehicle (Fgfr3^369/+ mice; [3]): +0.76%
- Skull Circularity index, % change vs Vehicle (Fgfr3^369/+ mice; [3]): −2.88%*
- Sternum length, % change vs Vehicle (Fgfr3^369/+ mice; [3]): +13.7%*
- Tail length, % change vs Vehicle (Fgfr3^369/+ mice; [3]): +7.22%*
- Thoracic vertebrae length, % change vs Vehicle (Fgfr3^369/+ mice; [3]): +25.3%*
- Tibia length, % change vs Vehicle (Fgfr3^369/+ mice; [3]): +8.13%*
- Total CTL vertebrae length, % change vs Vehicle (Fgfr3^369/+ mice; [3]): +20.9%*
- mean NC2st blood serum level (active concentration) ([2]; Tx10 group): above the projected threshold for 50% reversal of the ACH phenotype
- mean NC2st blood serum level (active concentration) ([2]; Tx100 group): nearly three-fold above the projected threshold for 100% reversal
